The text below walks through data of US20230398134A1, “SOLID DISPERSIONS OF CANNABIDIOL” (INDENA S.P.A., priority 2020, published 2023).

Series [1] in a line: Solubility in fasted-state simulated intestinal fluid (FaSSIF, pH 6.5). The format is physicochemical. Conditions: FaSSIF pH 6.5, excess solid, 2 hours stirring at room temperature, filtered 0.45 μm. As to the method: (§1) The solubility of the solid powder dispersion of CBD 2, prepared as described in Example 1, was evaluated in simulated biological fluids. […] For the purposes of the present description, the term “mechanical mixture” means a combination of one or more solids amalgamated by mixing techniques not involving the use of any solvent.
(§2) The solubility studies in different biologically relevant media of the solid dispersion prepared according to Example 1 were conducted to evaluate its behaviour in the intestine under fed and fasted conditions. The solubility studies were conducted in FaSSIF (pH 6.5) and FeSSIF (pH 5).
(§3) 10-20 mL of FaSSIF and FeSSIF were placed in 40 mL glass vials. An amount of solid dispersion prepared according to Example 1, and an amount of mechanical mixture prepared according to Example 2, in excess of the expected saturated solubility, was added to the vials; the resulting mixtures were maintained under stirring for 2 hours at room temperature. The mixtures were filtered through 0.45 μm PTFE membrane filters. The filtered solutions were analysed with HPLC instrumentation.
10-20 mL of FaSSIF was placed in 40 mL glass vials. […] The mixtures were filtered through 0.45 μm PTFE membrane filters. The filtered solutions were analysed with HPLC instrumentation.

Series [2] is described as follows: Solubility in fed-state simulated intestinal fluid (FeSSIF, pH 5). Particulars: FeSSIF pH 5, excess solid, 2 hours stirring at room temperature, filtered 0.45 μm, HPLC (Table 2). Format: physicochemical. The procedure:
as §1, §2, §3

Take `C=C(C)[C@@H]1CCC(C)=C[C@H]1c1c(O)cc(CCCCC)cc1O` [Cannabidiol 2, 2-[(1R,6R)-3-methyl-6-(prop-1-en-2-yl)-cyclohex-2-enyl]-5-pentylbenzen-1,3-diol]: the results for the “Cannabidiol 2 (mg/mL) concentration” value in series [1] (HPLC (Table 2)), in series [1] (HPLC (Table 3)) and in series [2] were 0.067 mg/mL, 0.067 mg/mL and 0.278 mg/mL, respectively.
